Data taken from patent US10519152B2, “Compounds and their use in treating cancer” (AstraZeneca AB, priority 2017, dated 2019).

Target: T1, Estrogen Receptor (ERα) in MCF-7 human ductal carcinoma breast cell line (Homo sapiens, UniProt P03372)
T1 construct: endogenous in cells; host or cells: MCF-7
T1 sequence (P03372 1-595): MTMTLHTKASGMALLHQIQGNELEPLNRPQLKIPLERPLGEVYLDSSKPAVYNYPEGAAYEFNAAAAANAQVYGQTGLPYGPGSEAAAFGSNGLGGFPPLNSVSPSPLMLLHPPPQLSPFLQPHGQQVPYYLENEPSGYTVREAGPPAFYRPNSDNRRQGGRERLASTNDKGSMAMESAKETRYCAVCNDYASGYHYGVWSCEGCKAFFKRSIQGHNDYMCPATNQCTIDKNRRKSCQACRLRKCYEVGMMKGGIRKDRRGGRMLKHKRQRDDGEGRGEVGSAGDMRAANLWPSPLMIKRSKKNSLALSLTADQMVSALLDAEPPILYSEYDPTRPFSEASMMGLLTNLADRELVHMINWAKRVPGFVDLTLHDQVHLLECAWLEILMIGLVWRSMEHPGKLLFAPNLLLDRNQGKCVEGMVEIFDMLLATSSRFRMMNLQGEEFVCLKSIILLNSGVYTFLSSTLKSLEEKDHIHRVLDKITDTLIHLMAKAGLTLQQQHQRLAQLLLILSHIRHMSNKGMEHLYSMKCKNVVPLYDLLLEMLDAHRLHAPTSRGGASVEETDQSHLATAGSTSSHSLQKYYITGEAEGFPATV
Assay: MCF-7 ER degradation assay (cell based immuno-fluorescence)
Details: MCF-7 cells; for ER degradation ≥ 90% at 0.3 μM: ER degradation by fulvestrant at 0.3 μM is defined as 100%; for DC50: 18-22 hours incubation, 50% reduction of ERα expression, single experiment or average of two or more, read-out: MCF-7 ER degradation IC50
Method in brief: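 MCF-7 human ductal carcinoma breast cells were seeded at 3.75×10^4 cells per mL (40 μL per well) in 384 well plates with phenol red free DMEM containing 2 mM L-Glutamine and 5% (v/v) Charcoal/Dextran treated foetal calf serum. After overnight culture, compounds were acoustically dispensed, incubated 18-22 hours, then cells were formaldehyde-fixed and immunostained for ERα.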

Row | SMILES | ER degradation ≥ 90% at 0.3 μM | DC50 [nM]
1 | Cc1ncsc1-c1ccc(CNC(=O)[C@@H]2C[C@@H](O)CN2C(=O)[C@@H](NC(=O)c2cnn(CCOCCNC(=O)/C=C/c3cc(F)c([C@@H]4c5[nH]c6ccccc6c5C[C@@H](C)N4CC(C)(C)F)c(F)c3)c2)C(C)(C)C)cc1 [Example 64, 1-(2-(2-((E)-3-(3,5-difluoro-4-((1R,3R)-2-(2-fluoro-2-methylpropyl)-3-methyl-2,3,4,9-tetrahydro-1H-pyrido[3,4-b]indol-1-yl)phenyl)acrylamido)ethoxy)ethyl)-N—((S)-1-((2S,4R)-4-hydroxy-2-((4-(4-methylthiazol-5-yl)benzyl)carbamoyl)pyrrolidin-5-yl)-3,3-dimethyl-1-oxobutan-2-yl)-1H-pyrazole-4-carboxamide, Trifluoroacetic Acid] | • | 0.5
2 | Cc1ncsc1-c1ccc(CNC(=O)[C@@H]2C[C@@H](O)CN2C(=O)[C@@H](NC(=O)Cc2ccc(OCCOCCNC(=O)/C=C/c3cc(F)c([C@@H]4c5[nH]c6ccccc6c5C[C@@H](C)N4CC(C)(C)F)c(F)c3)cc2)C(C)(C)C)cc1 [Example 66, (2S,4R)-1-((S)-2-(2-(4-(2-(2-((E)-3-(3,5-difluoro-4-((1R,3R)-2-(2-fluoro-2-methylpropyl)-3-methyl-2,3,4,9-tetrahydro-1H-pyrido[3,4-b]indol-1-yl)phenyl)acrylamido)ethoxy)ethoxy)phenyl)acetamido)-3,3-dimethylbutanoyl)-4-hydroxy-N-(4-(4-methylthiazol-5-yl)benzyl)pyrrolidine-2-carboxamide, Trifluoroacetic Acid] | • | 2.2
3 | Cc1ncsc1-c1ccc(CNC(=O)[C@@H]2C[C@@H](O)CN2C(=O)[C@@H](NC(=O)c2ccc(N3CCN(CCNC(=O)/C=C/c4cc(F)c([C@@H]5c6[nH]c7ccccc7c6C[C@@H](C)N5CC(C)(C)F)c(F)c4)CC3)cc2)C(C)(C)C)cc1 [Example 67, (2S,4R)-1-((S)-2-(4-(4-(2-((E)-3-(3,5-difluoro-4-((1R,3R)-2-(2-fluoro-2-methylpropyl)-3-methyl-2,3,4,9-tetrahydro-1H-pyrido[3,4-b]indol-1-yl)phenyl)acrylamido)ethyl)piperazin-1-yl)benzamido)-3,3-dimethylbutanoyl)-4-hydroxy-N-(4-(4-methylthiazol-5-yl)benzyl)pyrrolidine-2-carboxamide, Trifluoroacetic Acid] | • | 4.5
4 | Cc1ncsc1-c1ccc(CNC(=O)[C@@H]2C[C@@H](O)CN2C(=O)[C@@H](NC(=O)COCCOCCOCCOCC(=O)Nc2cc(F)c([C@@H]3c4[nH]c5ccccc5c4C[C@@H](C)N3CC(C)(C)F)c(F)c2)C(C)(C)C)cc1 [Example 68, N1-(3,5-difluoro-4-((1R,3R)-2-(2-fluoro-2-methylpropyl)-3-methyl-2,3,4,9-tetrahydro-1H-pyrido[3,4-b]indol-1-yl)phenyl)-N14-((S)-1-((2S,4R)-4-hydroxy-2-((4-(4-methylthiazol-5-yl)benzyl)carbamoyl)pyrrolidin-1-yl)-3,3-dimethyl-1-oxobutan-2-yl)-3,6,9,12-tetraoxatetradecanediamide] | •• | 6.2
5 | Cc1ncsc1-c1ccc(CNC(=O)[C@@H]2C[C@@H](O)CN2C(=O)[C@@H](NC(=O)COCCOCCOCCOc2cc(F)c([C@@H]3c4[nH]c5ccccc5c4C[C@@H](C)N3CC(F)(F)CO)c(F)c2)C(C)(C)C)cc1 [Example 71, (2S,4R)-1-((S)-2-(tert-Butyl)-14-(4-((1R,3R)-2-(2,2-difluoro-3-hydroxypropyl)-3-methyl-2,3,4,9-tetrahydro-1H-pyrido[3,4-b]indol-1-yl)-3,5-difluorophenoxy)-4-oxo-6,9,12-trioxa-3-azatetradecanoyl)-4-hydroxy-N-(4-(4-methylthiazol-5-yl)benzyl)pyrrolidine-2-carboxamide] | • | 0.5
6 | Cc1ncsc1-c1ccc(CNC(=O)[C@@H]2C[C@@H](O)CN2C(=O)[C@@H](NC(=O)COCc2cccc(CCCOc3cc(F)c([C@@H]4c5[nH]c6ccccc6c5C[C@@H](C)N4CC(C)(C)F)c(F)c3)c2)C(C)(C)C)cc1 [Example 74, (2S,4R)-1-((S)-2-(2-((3-(3-(3,5-Difluoro-4-((1R,3R)-2-(2-fluoro-2-methylpropyl)-3-methyl-2,3,4,9-tetrahydro-1H-pyrido[3,4-b]indol-1-yl)phenoxy)propyl)benzyl)oxy)acetamido)-3,3-dimethylbutanoyl)-4-hydroxy-N-(4-(4-methylthiazol-5-yl)benzyl)pyrrolidine-2-carboxamide] | •• | 14.3
7 | Cc1ncsc1-c1ccc(CNC(=O)[C@@H]2C[C@@H](O)CN2C(=O)[C@@H](NC(=O)COCCOCCOCCOc2cc(F)c([C@@H]3c4[nH]c5ccccc5c4C[C@@H](C)N3CC3(F)CC3)c(F)c2)C(C)(C)C)cc1 [Example 77, (2S,4R)-1-((S)-2-(tert-Butyl)-14-(3,5-difluoro-4-((1R,3R)-2-((1-fluorocyclopropyl)methyl)-3-methyl-2,3,4,9-tetrahydro-1H-pyrido[3,4-b]indol-1-yl)phenoxy)-4-oxo-6,9,12-trioxa-3-azatetradecanoyl)-4-hydroxy-N-(4-(4-methylthiazol-5-yl)benzyl)pyrrolidine-2-carboxamide] | •• | 1
8 | Cc1ncsc1-c1ccc(CNC(=O)[C@@H]2C[C@@H](O)CN2C(=O)[C@@H](NC(=O)COCCCCCCCOc2cc(F)c([C@@H]3c4[nH]c5ccccc5c4C[C@@H](C)N3CC(F)(F)CO)c(F)c2)C(C)(C)C)cc1 [Example 78, (2S,4R)-1-((S)-2-(2-((7-(4-((1R,3R)-2-(2,2-Difluoro-3-hydroxypropyl)-3-methyl-2,3,4,9-tetrahydro-1H-pyrido[3,4-b]indol-1-yl)-3,5-difluorophenoxy)heptyl)oxy)acetamido)-3,3-dimethylbutanoyl)-4-hydroxy-N-(4-(4-methylthiazol-5-yl)benzyl)pyrrolidine-2-carboxamide] | •• | 0.6
9 | Cc1ncsc1-c1ccc(CNC(=O)[C@@H]2C[C@@H](O)CN2C(=O)[C@@H](NC(=O)COCCCCCOc2cc(F)c([C@@H]3c4[nH]c5ccccc5c4C[C@@H](C)N3CC3(F)CC3)c(F)c2)C(C)(C)C)cc1 [Example 79, (2S,4R)-1-((S)-2-(2-((5-(3,5-difluoro-4-((1R,3R)-2-((1-fluorocyclopropyl)methyl)-3-methyl-2,3,4,9-tetrahydro-1H-pyrido[3,4-b]indol-1-yl)phenoxy)pentyl)oxy)acetamido)-3,3-dimethylbutanoyl)-4-hydroxy-N-(4-(4-methylthiazol-5-yl)benzyl)pyrrolidine-2-carboxamide] | • | 2
10 | Cc1ncsc1-c1ccc(CNC(=O)[C@@H]2C[C@@H](O)CN2C(=O)[C@@H](NC(=O)COCCO[C@H](C)[C@@H](C)OCCOc2cc(F)c([C@@H]3c4[nH]c5ccccc5c4C[C@@H](C)N3CC(C)(C)F)c(F)c2)C(C)(C)C)cc1 [Example 80, (2S,4R)-1-((2S,10R,11R)-2-(tert-butyl)-14-(3,5-difluoro-4-((1R,3R)-2-(2-fluoro-2-methylpropyl)-3-methyl-2,3,4,9-tetrahydro-1H-pyrido[3,4-b]indol-1-yl)phenoxy)-10,11-dimethyl-4-oxo-6,9,12-trioxa-3-azatetradecanoyl)-4-hydroxy-N-(4-(4-methylthiazol-5-yl)benzyl)pyrrolidine-2-carboxamide] | •• | 0.7
11 | Cc1ncsc1-c1ccc(CNC(=O)[C@@H]2C[C@@H](O)CN2C(=O)[C@@H](NC(=O)COCCO[C@@H](C)[C@H](C)OCCOc2cc(F)c([C@@H]3c4[nH]c5ccccc5c4C[C@@H](C)N3CC(C)(C)F)c(F)c2)C(C)(C)C)cc1 [Example 82, (2S,4R)-1-((2S,10S,11S)-2-(tert-butyl)-14-(3,5-difluoro-4-((1R,3R)-2-(2-fluoro-2-methylpropyl)-3-methyl-2,3,4,9-tetrahydro-1H-pyrido[3,4-b]indol-1-yl)phenoxy)-10,11-dimethyl-4-oxo-6,9,12-trioxa-3-azatetradecanoyl)-4-hydroxy-N-(4-(4-methylthiazol-5-yl)benzyl)pyrrolidine-2-carboxamide] | •• | 0.2
12 | Cc1ncsc1-c1ccc(CNC(=O)[C@@H]2C[C@@H](O)CN2C(=O)[C@@H](NC(=O)COCCOCCOCCCCNC(=O)c2cc(F)c([C@@H]3c4[nH]c5ccccc5c4C[C@@H](C)N3CC(C)(C)F)c(F)c2)C(C)(C)C)cc1 [Example 83, (2S,4R)-1-((S)-17-(tert-Butyl)-1-(3,5-difluoro-4-((1R,3R)-2-(2-fluoro-2-methylpropyl)-3-methyl-2,3,4,9-tetrahydro-1H-pyrido[3,4-b]indol-1-yl)phenyl)-1,15-dioxo-7,10,13-trioxa-2,16-diazaoctadecan-18-oyl)-4-hydroxy-N-(4-(4-methylthiazol-5-yl)benzyl)pyrrolidine-2-carboxamide] | •• | 0.6
